# Experimental data published in PMC9482650, “Quantitative fragmentomics allow affinity mapping of interactomes” (Nature Communications, 2022).
# Ends that are not written are not given here. * marks the point of attachment. Biotin = O=C1N[C@H]2[C@H](CS[C@H]2CCCCC(=O)*)N1; ttds = NCCCOCCOCCOCCCNC(=O)CCC(=O)*
# Experiments:
# Assay type in all cases: binding, human
# PDZ-proteins = assay: Estimated PPI affinity, additive association constants of all PDZ sites;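 note: calculated estimate, not directly measured: domain-motif affinities from holdup assays, association constants summed over all PDZ sites, one motif bound at a time, weak interactions ignored, giving a lower limit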
# Excerpt: We used the previously generated domain-motif interactome, consisting of the composite affinities (i.e., taken from the most reliable holdup method; see above) to estimate affinities of PPIs. We assumed that a multidomain PDZ-protein can only interact with a single PBM at the same time (Eq. (4)):4 PDZ+PBM⇌(PDZ−PBM)site1,or(PDZ−PBM)site2,or(PDZ−PBM)siten
# Using this approximation, as proposed by others before[45], the association constant of a multi-site interaction is the sum of the association constants of all sites (Eq. (5)):5 Ka,additive=[PDZ−PBM]site1+[PDZ−PBM]site2+…+[PDZ−PBM]siten/[PDZ]×[PBM]=∑Ka,site
# The contribution of unmeasurable weak interactions was also neglected in the calculations.
# HeLa cell extract preys = assay: PBM-AP-MS, PBM peptide baits
# Protocol: (§1) HEK293T and HeLa cells were authenticated and found 100% identity to ATCC cat. CRL-3216 and ATCC cat. CCL-2, respectively. Jurkat and HaCat cell lines were not authenticated (original source: ECACC and Deutsches Krebsforschungszentrum DKFZ, respectively). HeLa cells were grown in DMEM (1 g/L glucose, Gibco) medium completed with 5% FCS and 40 μg/mL gentamicin, diluted every 3rd/4th day 1/10. HaCat cells were grown in DMEM (1 g/L glucose, Gibco) medium completed with 10% FCS and 40 μg/mL gentamicin, diluted every 3rd/4th day 1/4. Jurkat cells were grown in RPMI (Gibco) medium completed with 10% FCS and 40 μg/mL gentamicin, diluted every 3rd/4th day 1/12. All cells were kept at 37 °C and 5% CO2. For proteomics analyses cells were seeded on T-175 flasks. After they reached confluency, adherent cells were washed with PBS once and collected by scraping with ice-cold lysis buffer (Hepes-KOH pH 7.5 50 mM, NaCl 150 mM, Triton X-100 1%, complete EDTA-free protease inhibitor cocktail 1×, EDTA 2 mM, TCEP 5 mM, glycerol 10%). Jurkat cells were collected by 1000 g × centrifugation, washed once with PBS, then collected by 1000 g × 5 min centrifugation again and lysed in ice-cold lysis buffer. Lysates were sonicated 4 × 20 s with 1 s long pulses on ice, then incubated rotating at 4 °C for 30 min. Lysates were centrifuged at 12,000 rpm 4 °C for 20 min and supernatant was kept for further analysis. Concentration determination was carried out by standard Bradford method (Bio-Rad Protein Assay Dye Reagent #5000006) using BSA (MP BIomedicals #160069) as control on a Bio-Rad SmartSpec 3000 spectrophotometer instrument.
# (§2) For PBM-AP-MS experiments, 30 μl streptavidin resin was mixed with biotin or peptide at 50–60 μM concentration in 6–6.5 resin volume for 60 min to achieve resin saturation. For PDZ-AP-MS experiments, 30 μl streptavidin resin was mixed with biotinylated MBP or MBP-PDZ at 40-50 μM concentration in >1000× resin volume for 60 min to achieve resin saturation. After saturation, resins were washed a single time (ten resin volume, holdup buffer), and were depleted with biotin (1 mM biotin, 5–10 resin volume, 10 min). Finally, resins were washed two times. 0.5 ml 2 mg/ml cell lysate was added to the dry resin (1 mg total input) and were incubated at 4 °C for 2 h. Then, the beads were washed three times with 10 resin volume buffer containing: 50 mM TRIS pH 8.5, 150 mM NaCl, 1% TritonX-100, 10× complete EDTA-free protease inhibitor cocktail, 2 mM EDTA, 1 mM TCEP. Then, the beads were washed two times with ten resin volume buffer containing: 50 mM TRIS pH 8.5, 150 mM NaCl, 1 mM TCEP. Finally, captured protein was eluted from the resin in two steps and the eluted fractions were pooled. For each elution the beads were incubated for 30 min with three resin volume buffer containing: 20 mM TRIS pH8.5, 100 mM NaCl, 500 μM TCEP, 8 M Urea. Between each step, the beads were separated by mild centrifugation and the supernatant was removed by gentle pipetting.
# (§3) The samples were precipitated with TCA 20% overnight at 4 °C and centrifuged at 14,000 rpm for 10 min at 4 °C. The protein pellets were washed twice with 1 mL cold acetone and air dried. The protein extracts were solubilized in urea 8 M, reduced with 5 mM TCEP for 30 min, and alkylated with 10 mM iodoacetamide for 30 min in the dark. Double digestion was performed at 37 °C with 500 ng endoproteinase Lys-C for 4 h, followed by fourfold dilution and an overnight digestion with 500 ng trypsin. Peptide mixtures were then desalted on C18 spin-column and dried on Speed-Vacuum.
# (§4) Samples were analyzed using an Ultimate 3000 nano-RSLC (Thermo Scientific, San Jose California) coupled in line with a LTQ-Orbitrap ELITE mass spectrometer via a nano-electrospray ionization source (Thermo Scientific, San Jose California). […]
# [1] = test system: Jurkat cell extract preys; assay: PBM-AP-MS, PBM peptide baits
# Protocol: as §1, §2, §3, §4
substance,measurement,setting,value
HPV35E6 ({Biotin-ttds}-SKPTRRETEV),final additive pKd,PDZ-proteins; PDZ-protein AHNAK,3.5
same,final additive pKd,PDZ-proteins; PDZ-protein CASK,3.5
same,final additive pKd,PDZ-proteins; PDZ-protein DLG1,5.779
same,final additive pKd,PDZ-proteins; PDZ-protein InaDl,3.5
same,final additive pKd,PDZ-proteins; PDZ-protein LAP2,3.6933
same,final additive pKd,PDZ-proteins; PDZ-protein LIN7C,3.759
same,final additive pKd,PDZ-proteins; PDZ-protein LNX2,3.5
same,final additive pKd,PDZ-proteins; PDZ-protein MAGI3,5.407
same,final additive pKd,PDZ-proteins; PDZ-protein MPP5,3.5
same,final additive pKd,PDZ-proteins; PDZ-protein MPP6,3.5
same,final additive pKd,PDZ-proteins; PDZ-protein MPP7,3.5
same,final additive pKd,PDZ-proteins; PDZ-protein NHERF2,3.774
same,final additive pKd,PDZ-proteins; PDZ-protein PDLIM2,3.5
same,final additive pKd,PDZ-proteins; PDZ-protein PDLIM5,3.5
same,final additive pKd,PDZ-proteins; PDZ-protein PDLIM7,3.5
same,final additive pKd,PDZ-proteins; PDZ-protein PSMD9,3.5
same,final additive pKd,PDZ-proteins; PDZ-protein SCRIB,5.233
same,final additive pKd,PDZ-proteins; PDZ-protein SNTB1,4.679
same,final additive pKd,PDZ-proteins; PDZ-protein SNX27,4.662
same,final additive pKd,PDZ-proteins; PDZ-protein SYNJ2BP,5.6853
same,final additive pKd,PDZ-proteins; PDZ-protein TX1B3,4.927
same,Enrichment values compared to biotin controls,"HeLa cell extract preys; prey AHNAK, PBM peptide bait",0.9
same,Enrichment values compared to biotin controls,"HeLa cell extract preys; prey ARHGAP21, PBM peptide bait",1.3
same,Enrichment values compared to biotin controls,"HeLa cell extract preys; prey ARHGEF12, PBM peptide bait",1.1
same,Enrichment values compared to biotin controls,"HeLa cell extract preys; prey CASK, PBM peptide bait",4.9
same,Enrichment values compared to biotin controls,"HeLa cell extract preys; prey DLG1, PBM peptide bait",6.4
same,Enrichment values compared to biotin controls,"HeLa cell extract preys; prey DLG3, PBM peptide bait",5.8
same,Enrichment values compared to biotin controls,"HeLa cell extract preys; prey DLG5, PBM peptide bait",1.3
same,Enrichment values compared to biotin controls,"HeLa cell extract preys; prey DVL2, PBM peptide bait",0.8
same,Enrichment values compared to biotin controls,"HeLa cell extract preys; prey GOPC, PBM peptide bait",1.4
same,Enrichment values compared to biotin controls,"HeLa cell extract preys; prey HTRA1, PBM peptide bait",2.0
same,Enrichment values compared to biotin controls,"HeLa cell extract preys; prey InaDl, PBM peptide bait",1.3
same,Enrichment values compared to biotin controls,"HeLa cell extract preys; prey LAP2, PBM peptide bait",1.4
same,Enrichment values compared to biotin controls,"HeLa cell extract preys; prey LIN7C, PBM peptide bait",131.1
same,Enrichment values compared to biotin controls,"HeLa cell extract preys; prey LMO7, PBM peptide bait",2.0
same,Enrichment values compared to biotin controls,"HeLa cell extract preys; prey MPDZ, PBM peptide bait",2.5
same,Enrichment values compared to biotin controls,"HeLa cell extract preys; prey MPP5, PBM peptide bait",4.0
same,Enrichment values compared to biotin controls,"HeLa cell extract preys; prey MPP6, PBM peptide bait",1.1
same,Enrichment values compared to biotin controls,"HeLa cell extract preys; prey MPP7, PBM peptide bait",11.7
same,Enrichment values compared to biotin controls,"HeLa cell extract preys; prey NHERF2, PBM peptide bait",0.9
same,Enrichment values compared to biotin controls,"HeLa cell extract preys; prey NHERF3, PBM peptide bait",0.9
same,Enrichment values compared to biotin controls,"HeLa cell extract preys; prey PDLIM5, PBM peptide bait",0.8
same,Enrichment values compared to biotin controls,"HeLa cell extract preys; prey PDLIM7, PBM peptide bait",0.9
same,Enrichment values compared to biotin controls,"HeLa cell extract preys; prey PSMD9, PBM peptide bait",0.6
same,Enrichment values compared to biotin controls,"HeLa cell extract preys; prey SCRIB, PBM peptide bait",217.5
same,Enrichment values compared to biotin controls,"HeLa cell extract preys; prey SIPA1L1, PBM peptide bait",0.5
same,Enrichment values compared to biotin controls,"HeLa cell extract preys; prey SNTA1, PBM peptide bait",0.5
same,Enrichment values compared to biotin controls,"HeLa cell extract preys; prey SNTB1, PBM peptide bait",8.8
same,Enrichment values compared to biotin controls,"HeLa cell extract preys; prey SNTB2, PBM peptide bait",48.7
same,Enrichment values compared to biotin controls,"HeLa cell extract preys; prey SNX27, PBM peptide bait",1.4
same,Enrichment values compared to biotin controls,"HeLa cell extract preys; prey SYNJ2BP, PBM peptide bait",63.6
same,"Fold changes HeLa, SYNJ2BP","HeLa cell extract preys; prey SYNJ2BP, PBM peptide bait",63.6
same,Enrichment values compared to biotin controls,"HeLa cell extract preys; prey TJP1, PBM peptide bait",0.9
same,Enrichment values compared to biotin controls,"HeLa cell extract preys; prey TX1B3, PBM peptide bait",15.3
same,Enrichment values compared to biotin controls,"[1]; prey APBA1, PBM peptide bait",2.9
same,Enrichment values compared to biotin controls,"[1]; prey DLG4, PBM peptide bait",3.9
same,Enrichment values compared to biotin controls,"[1]; prey DVL2, PBM peptide bait",1.1
same,Enrichment values compared to biotin controls,"[1]; prey GOPC, PBM peptide bait",1.3
same,Enrichment values compared to biotin controls,"[1]; prey InaDl, PBM peptide bait",0.9
same,Enrichment values compared to biotin controls,"[1]; prey LAP2, PBM peptide bait",2.0
same,Enrichment values compared to biotin controls,"[1]; prey LNX2, PBM peptide bait",0.8
same,Enrichment values compared to biotin controls,"[1]; prey MAGI3, PBM peptide bait",3.7
same,Enrichment values compared to biotin controls,"[1]; prey MPP1, PBM peptide bait",1.3
same,Enrichment values compared to biotin controls,"[1]; prey MPP5, PBM peptide bait",1.4
same,Enrichment values compared to biotin controls,"[1]; prey MPP6, PBM peptide bait",1.4
same,Enrichment values compared to biotin controls,"[1]; prey MPP7, PBM peptide bait",2.9
same,Enrichment values compared to biotin controls,"[1]; prey MYO18A, PBM peptide bait",0.9
same,Enrichment values compared to biotin controls,"[1]; prey PDLIM2, PBM peptide bait",1.7
same,Enrichment values compared to biotin controls,"[1]; prey PDLIM5, PBM peptide bait",0.851
same,Enrichment values compared to biotin controls,"[1]; prey PDLIM7, PBM peptide bait",1.2
same,Enrichment values compared to biotin controls,"[1]; prey PDZD11, PBM peptide bait",1.8
same,Enrichment values compared to biotin controls,"[1]; prey PSMD9, PBM peptide bait",0.748
same,Enrichment values compared to biotin controls,"[1]; prey SIPA1L1, PBM peptide bait",1.1
same,Enrichment values compared to biotin controls,"[1]; prey SIPA1L2, PBM peptide bait",1.1
same,Enrichment values compared to biotin controls,"[1]; prey SNTB1, PBM peptide bait",5.0
same,Enrichment values compared to biotin controls,"[1]; prey SNTB2, PBM peptide bait",1.1
same,Enrichment values compared to biotin controls,"[1]; prey SNX27, PBM peptide bait",2.9
same,Enrichment values compared to biotin controls,"[1]; prey SYNJ2BP, PBM peptide bait",12.5
same,Enrichment values compared to biotin controls,"[1]; prey TX1B3, PBM peptide bait",4.1
